Measurements: the supplement of paper PMC11451515

System: P12-Ichikawa
Assay: cell viability relative to DMSO control; higher = less cytotoxic
Settings: 48 h
Summary of the method: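 In 1536-well plates, 5 μl of leukemia cells were seeded per well: 500 cells/well for NOMO1 or SEM and 1000 cells/well for P12-Ichikawa. Each line had first been adapted for at least four passages in each medium. Library compounds in DMSO were pin-dosed at 11 threefold concentrations between 47 μM and 0.79 nM, and CellTiter-Glo One luminescence was read after 48 h at 37°C. Viability is a per-plate percentage relative to DMSO wells, with cell-free wells as background.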

[1] = HPLM + 10% dialyzed FBS, 0.000781 µM
[2] = HPLM + 10% dialyzed FBS, 0.00234 µM
[3] = HPLM + 10% dialyzed FBS, 0.00702 µM
[4] = HPLM + 10% dialyzed FBS, 0.0211 µM
[5] = HPLM + 10% dialyzed FBS, 0.0632 µM
[6] = HPLM + 10% dialyzed FBS, 0.19 µM
[7] = HPLM + 10% dialyzed FBS, 0.569 µM
[8] = HPLM + 10% dialyzed FBS, 1.71 µM
[9] = HPLM + 10% dialyzed FBS, 5.12 µM
[10] = HPLM + 10% dialyzed FBS, 15.4 µM
[11] = HPLM + 10% dialyzed FBS, 46.1 µM
[12] = RPMI 5 mM glucose + 10% FBS, 0.000781 µM
[13] = RPMI 5 mM glucose + 10% FBS, 0.00234 µM
[14] = RPMI 5 mM glucose + 10% FBS, 0.00702 µM
[15] = RPMI 5 mM glucose + 10% FBS, 0.0211 µM
[16] = RPMI 5 mM glucose + 10% FBS, 0.0632 µM
[17] = RPMI 5 mM glucose + 10% FBS, 0.19 µM
[18] = RPMI 5 mM glucose + 10% FBS, 0.569 µM
[19] = RPMI 5 mM glucose + 10% FBS, 1.71 µM
[20] = RPMI 5 mM glucose + 10% FBS, 5.12 µM
[21] = RPMI 5 mM glucose + 10% FBS, 15.4 µM
[22] = RPMI 5 mM glucose + 10% FBS, 46.1 µM
[23] = RPMI 5 mM glucose + 10% dialyzed FBS, 0.000781 µM
[24] = RPMI 5 mM glucose + 10% dialyzed FBS, 0.00234 µM
[25] = RPMI 5 mM glucose + 10% dialyzed FBS, 0.00702 µM
[26] = RPMI 5 mM glucose + 10% dialyzed FBS, 0.0211 µM
[27] = RPMI 5 mM glucose + 10% dialyzed FBS, 0.0632 µM
[28] = RPMI 5 mM glucose + 10% dialyzed FBS, 0.19 µM
[29] = RPMI 5 mM glucose + 10% dialyzed FBS, 0.569 µM
[30] = RPMI 5 mM glucose + 10% dialyzed FBS, 1.71 µM
[31] = RPMI 5 mM glucose + 10% dialyzed FBS, 5.12 µM
[32] = RPMI 5 mM glucose + 10% dialyzed FBS, 15.4 µM
[33] = RPMI 5 mM glucose + 10% dialyzed FBS, 46.1 µM

Structure (SMILES) | cell viability [1] | cell viability [2] | cell viability [3] | cell viability [4] | cell viability [5] | cell viability [6] | cell viability [7] | cell viability [8] | cell viability [9] | cell viability [10] | cell viability [11] | cell viability [12] | cell viability [13] | cell viability [14] | cell viability [15] | cell viability [16] | cell viability [17] | cell viability [18] | cell viability [19] | cell viability [20] | cell viability [21] | cell viability [22] | cell viability [23] | cell viability [24] | cell viability [25] | cell viability [26] | cell viability [27] | cell viability [28] | cell viability [29] | cell viability [30] | cell viability [31] | cell viability [32] | cell viability [33]
O=C1NC(=O)/C(=C/c2ccc3nccnc3c2)S1 | 111% | 111% | 117% | 107% | 115% | 122% | 102% | 116% | 103% | 97.5% | 99.7% | 110% | 112% | 119% | 114% | 115% | 109% | 98.7% | 106% | 95.2% | 95.9% | 91.4% | 110% | 111% | 126% | 123% | 114% | 113% | 115% | 102% | 96.2% | 104% | 97.1%
C[C@]1(O)CC(C1)C2=NC(=C3[N]2C=CN=C3N)C4=CC5=C(C=C4)C=CC(=N5)C6=CC=CC=C6 (configuration not stated) | 94% | 97.3% | 104% | 103% | 107% | 97.7% | 105% | 97.4% | 75.5% | 4.9% | 1.89% | 102% | 101% | 103% | 101% | 93.5% | 89.6% | 96.4% | 59.5% | 50.3% | 3.05% | 1.49% | 96.1% | 96.5% | 94.5% | 98.2% | 101% | 94.5% | 99% | 71% | 58.2% | 4.69% | 1.85%
CCc1ccc(OCc2ccccc2C(=O)Nc2ccc3nc(C)cc(N)c3c2)cc1 | 95.7% | 107% | 110% | 114% | 118% | 116% | 113% | 121% | 110% | 6.84% | 4.54% | 88.2% | 107% | 112% | 113% | 108% | 114% | 118% | 123% | 108% | 41.3% | 4.15% | 89.3% | 103% | 108% | 111% | 104% | 110% | 112% | 121% | 103% | 47.5% | 4.84%
O=C(O)c1ccc(O)c2ncc(N3CCOCC3)cc12 | 106% | 105% | 100% | 108% | 107% | 103% | 97.2% | 99.9% | 98.6% | 95.6% | 7.44% | 102% | 99.1% | 96.8% | 92.8% | 95.7% | 97.6% | 96.6% | 94.2% | 87.8% | 85.2% | 9.83% | 98.5% | 95.2% | 104% | 90.9% | 98% | 97.7% | 105% | 102% | 81.8% | 84.7% | 5.31%
CC(C)(N)C(=O)N[C@H](COCc1ccccc1)C(=O)N1CCC2(CC1)CN([S+](C)(=O)[O-])c1ccccc12 |  |  |  |  |  |  |  |  |  |  |  |  |  |  |  |  |  |  |  |  |  |  | 124% | 122% | 141% | 126% | 125% | 124% | 123% | 114% | 109% | 91.8% | 20.3%
CCN(CC)CCNC(=O)c1c(C)[nH]c(/C=C2\C(=O)Nc3ccc(F)cc32)c1C | 106% | 102% | 106% | 103% | 104% | 36.8% | 21.5% | 6.34% | 9.77% | 3.45% | 2.39% | 106% | 105% | 114% | 103% | 118% | 58.8% | 34.1% | 12.6% | 14.6% | 4.54% | 2.44% | 114% | 113% | 109% | 112% | 113% | 51.3% | 31% | 12.2% | 14.3% | 4.09% | 2.75%
CC(=O)SC[C@@H](C)C(=O)N1CCC[C@H]1C(=O)N[C@@H](Cc1ccccc1)C(=O)O | 99.5% | 108% | 108% | 104% | 113% | 107% | 106% | 104% | 102% | 101% | 94.1% | 103% | 93.2% | 97.6% | 100% | 102% | 97.8% | 102% | 96.7% | 98.4% | 91.3% | 90% | 99.7% | 101% | 102% | 101% | 99.7% | 100% | 95.4% | 101% | 92.2% | 90.8% | 85.2%
C[C@@H]1CC[C@@]2(CC[C@]3(C)\C(=C/C[C@@H]4[C@@]5(C)CC[C@H](O)C(C)(C)[C@@H]5CC[C@@]34C)[C@@H]2[C@H]1C)C(O)=O | 112% | 117% | 113% | 109% | 120% | 117% | 109% | 116% | 115% | 125% | 113% | 117% | 112% | 104% | 113% | 118% | 116% | 116% | 116% | 116% | 124% | 115% | 99.7% | 106% | 106% | 112% | 123% | 114% | 115% | 110% | 119% | 109% | 113%
CCNC(=O)Nc1ccc(Oc2ncnc(N)c2/C=N/OC)cc1Cl | 107% | 114% | 107% | 116% | 123% | 119% | 119% | 118% | 106% | 101% | 120% | 111% | 113% | 117% | 117% | 121% | 128% | 126% | 121% | 117% | 111% | 131% | 106% | 116% | 119% | 122% | 124% | 123% | 118% | 122% | 119% | 107% | 107%
NC1=NC(=O)N2CC12 (configuration not stated) | 91% | 103% | 101% | 107% | 103% | 97% | 103% | 99.7% | 83.1% | 3.88% | 2.17% | 92.5% | 91.2% | 96.2% | 102% | 106% | 97.4% | 104% | 67.8% | 59% | 2.82% | 0.916% | 85.3% | 94.6% | 92.1% | 90.9% | 87.4% | 88.5% | 95.6% | 73.5% | 59.9% | 6.25% | 2.73%
CC/C=C\C[C@H]1C(=O)CC[C@@H]1CC(=O)OC | 121% | 119% | 126% | 125% | 126% | 126% | 117% | 115% | 115% | 114% | 108% |  |  |  |  |  |  |  |  |  |  |  | 122% | 129% | 124% | 121% | 131% | 125% | 125% | 126% | 125% | 116% | 109%
COCCn1c2c([n+](Cc3cnccn3)c1C)C(=O)c1ccccc1C2=O | 116% | 115% | 113% | 112% | 104% | 51.4% | 41.9% | 15.8% | 5.02% | 2.55% | 1.1% | 110% | 108% | 118% | 106% | 112% | 48.9% | 17.6% | 6.76% | 3.92% | 3.27% | 2.14% | 113% | 108% | 112% | 110% | 106% | 51.4% | 11.7% | 5.22% | 3.6% | 2.56% | 1.9%
CN1C(=O)/C(=C(NC2=CC=C(I)C=C2F)\C3=C1\N=C/N(C[C@@H](O)CO)C3=O)F | 86.5% | 82.2% | 87.2% | 89.6% | 81.1% | 82.8% | 75.4% | 80.3% | 74.8% | 71.3% | 62.9% | 78.2% | 74.9% | 83.6% | 73.8% | 71.6% | 71.3% | 72.1% | 70.4% | 68% | 68.9% | 40.5% | 81.1% | 82.2% | 85.6% | 86.7% | 77.7% | 81.9% | 76.2% | 80.1% | 78% | 65.2% | 39.2%
CN(C)C/C=C/C(=O)Nc1ccc(C(=O)Nc2cccc(Nc3ncc(Cl)c(-c4c[nH]c5ccccc45)n3)c2)cc1 | 81.9% | 85.6% | 85.8% | 94.8% | 82.5% | 78.6% | 17.3% | 10.2% | 4.95% | 3.8% | 3.94% | 78% | 85.3% | 84.2% | 89% | 92.9% | 77.1% | 12.3% | 6.62% | 3.34% | 2.59% | 3.22% | 79.7% | 82.9% | 93% | 97% | 93.2% | 77.6% | 17.9% | 11.6% | 5.08% | 2.82% | 3.14%
c1cc(-c2cnn3cc(-c4ccc(OCCN5CCCCC5)cc4)cnc23)ccn1 | 90.3% | 91.1% | 93.8% | 91.8% | 97% | 93.7% | 91.7% | 91.4% | 89.6% | 85.6% | 2.9% | 83.8% | 81.9% | 96.7% | 86.9% | 87.5% | 79% | 76% | 84.2% | 85.9% | 83.2% | 50.5% | 89.2% | 86.8% | 84.1% | 88.5% | 86.8% | 85.4% | 78.8% | 83.7% | 78.2% | 88% | 85.7%
